Our source for the ΔTm, IC50 and Kd values is patent US20250188110A1, “SPECIFIC SMALL MOLECULE INHIBITORS THAT BLOCK KMT9 METHYLTRANSFERASE ACTIVITY AND FUNCTION” (ALBERT-LUDWIGS-UNIVERSITÄT FREIBURG, priority 2021, published 2025).

In assay [1] the target is T1, KMT9 (Homo sapiens, UniProt Q9Y5N5).
T1 sequence (Q9Y5N5 1-214): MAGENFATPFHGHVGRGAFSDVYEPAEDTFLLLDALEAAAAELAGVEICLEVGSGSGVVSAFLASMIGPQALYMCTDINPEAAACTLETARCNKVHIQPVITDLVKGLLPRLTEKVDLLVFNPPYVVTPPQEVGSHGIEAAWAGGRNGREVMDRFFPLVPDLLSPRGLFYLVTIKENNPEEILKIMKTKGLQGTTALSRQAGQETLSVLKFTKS
T1 sequence (Q9UI30 1-120 isoform Q9UI30-2 partner): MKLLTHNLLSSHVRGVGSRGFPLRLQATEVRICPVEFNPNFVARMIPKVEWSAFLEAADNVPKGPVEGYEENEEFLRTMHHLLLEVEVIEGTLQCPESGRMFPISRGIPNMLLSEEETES
In words: KMT9 thermal shift assay (SyproOrange). The following applies: ΔTm; 500 µM compound, 2 μM KMT9, 5X SO; read-out: Thermal shift. The format is binding. An outline of the steps:
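Recombinant KMT9 was incubated with compound and SyproOrange at 25° C in 50 mM BTP pH 8.5, 1 mM MgCl2, 1 mM DTT. It was then heated from 20° C to 95° C at 1° C per 15 s with fluorescence read each step. Tm came from a Boltzmann sigmoidal fit; ΔTm relative to DMSO control, binned in 5 K ranges.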

In assay [2] the target is T1, KMT9. In words: KMT9 methyltransferase inhibition assay, 3H-SAM scintillation (entries 1-154). The following applies: entries 1-154: 3H-SAM assay, 25 nM KMT9, 5 μM ETF1. It is filed as biochemical. An outline of the steps: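 Final 25 nM KMT9, 5 μM ETF1 (residues 140-275), 0.3 μM 3H-SAM plus 0.7 μM SAM in pH 8.5 BTP buffer, 2 h at 30° C. TCA-quenched, filter-washed, methylation counted by scintillation; % inhibition vs DMSO and no-enzyme controls, IC50 from four-parameter fit.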

Assay [3] addresses T1, KMT9. In words: Microscale thermophoresis (MST) KMT9 binding. The following applies: microscale thermophoresis, His-tag labelled KMT9 (20 nM); read-out: MST. The method, boiled down: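 His-tagged KMT9 (20 nM), RED-Tris-NTA labelled, titrated with varying compound concentrations in 25 mM HEPES pH 7.5, 100 mM NaCl, 1 mM DTT, 0.05% Tween. MST at 40% MST and 100% LED power, Nano-RED excitation; Kd binned A ≤10 nM, B 10–100, C 100–1000, D >1000 nM.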
(In MST a laser heats a spot of the sample, and binding alters the fluorescence response.)

SMILES strings stand for the structures. pIC50, pKd: −log10 of the molar value.

With `CC1CCNc2ncnc3c2c1cn3[C@@H]1C[C@H](CN)[C@@H](O)[C@H]1O` (stereo partly drawn) [Compound 629, (1S,2R,3R,5R)-3-(Aminomethyl)-5-(9-methyl-6,7,8,9-tetrahydro-2H-2,3,5,6-tetraazabenzo[cd]azulen-2-yl)cyclopentane-1,2-diol], at KMT9 [1], the ΔTm at 500 µM was no more than 10 °C. Moreover, the pIC50 (commonly −log10 of the IC50, conventionally taken in molar units) at KMT9 [2] was less than 5.00. On KMT9 [3], the pKd is less than 6.00.
Turning to `CNCCC(=O)N(C)C[C@H]1C[C@@H](n2ccc3c(NC)ncnc32)[C@H](O)[C@@H]1O` [417 (288), N-(((1R,2R,3S,4R)-2,3-dihydroxy-4-(4-(methylamino)-7H-pyrrolo[2,3-d]pyrimidin-7-yl)cyclopentyl)methyl)-N-methyl-3-(methylamino)propanamide], the ΔTm at 500 µM on KMT9 [1] was no more than 10 °C. At KMT9 [2], this compound showed a pIC50 of less than 5.00. In addition, the pKd on KMT9 [3] is less than 6.00.
`COCCn1cc(COc2ccc(CNCCCNC[C@H]3O[C@@H](n4cnc5c(N)ncnc54)[C@H](O)[C@@H]3O)cc2)nn1` [293 (190), (2R,3R,4S,5R)-2-(6-amino-9H-purin-9-yl)-5-(((3-((4-((1-(2-methoxyethyl)-1/-1,2,3-triazol-4-yl)methoxy)benzyl)amino)propyl)amino)methyl)tetrahydrofuran-3,4-diol]: the ΔTm at 500 µM on KMT9 [1] was no more than 10 °C. Also, the pIC50 at KMT9 [2] is less than 5.00. In addition, the pKd at KMT9 [3] was less than 6.00.
Regarding `CNc1ncnc2c1ccn2[C@@H]1C[C@H](CNCCCNCCc2cccc(Sc3ccccc3)c2)[C@@H](O)[C@H]1O` [372 (276), (1R,2S,3R,5R)-3-(4-(methylamino)-7H-pyrrolo[2,3-a]pyrimidin-7-yl)-5-(((3-((3-(phenylthio)phenethyl)amino)propyl)amino)methyl) cyclopentane-1,2-diol], the ΔTm at 500 µM on KMT9 [1] fell in the range of 10 to 15 °C. Besides, the pIC50 on KMT9 [2] was 5.00 to 6.00. The pKd on KMT9 [3] is 6.00 to 7.00.
For `CNc1ncnc2c1ccn2[C@@H]1C[C@H](C(=O)N(C)CCCNCCc2cccc(Oc3ccccc3)c2)[C@@H](O)[C@H]1O` [351 (255), (1S,2R,3S,4R)-2,3-dihydroxy-N-methyl-4-(4-(methylamino)-7H-pyrrolo[2,3-a]pyrimidin-7-yl)-N-(3-((3-phenoxyphenethyl)amino)propyl) cyclopentane-1-carboxamide] the same measures were 10 to 15 °C, 5.00 to 6.00 and 7.00 to 8.00.
For `CCN(CCCNCCc1ccc2ccccc2c1)C[C@H]1C[C@@H](n2ccc3c(NC)ncnc32)[C@H](O)[C@@H]1O` [375 (279), (1S,2R,3R,5R)-3-((ethyl(3-((2-(naphthalen-2-yl)ethyl)amino)propyl)amino)methyl)-5-(4-(methylamino)-7H-pyrrolo[2,3-d]pyrimidin-7-yl) cyclopentane-1,2-diol] the same measures were 10 to 15 °C, less than 5.00 and 6.00 to 7.00.
For the compound `Nc1ncnc2c1c(C1CC1)cn2[C@@H]1C[C@H](CNCCCNCCc2ccccc2)[C@@H](O)[C@H]1O` [468 (342), (1R,2S,3R,5R)-3-(4-Amino-5-cyclopropyl-7H-pyrrolo[2,3-d]pyrimidin-7-yl)-5-(((3-(phenethylamino)propyl)amino)methyl) cyclopentane-1,2-diol], the ΔTm at 500 µM on KMT9 [1] was in the range of 15 to 20 °C. The compound also gave a pIC50 against KMT9 [2] of 5.00 to 6.00. The pKd at KMT9 [3] was 6.00 to 7.00.
For `NC[C@H]1C[C@@H](n2cc3c4c(ncnc42)NC(=O)CC3)[C@H](O)[C@@H]1O` [Compound 626, 2-((1R,2S,3R,4R)-4-(Aminomethyl)-2,3-dihydroxycyclopentyl)-2,6,8,9-tetrahydro-7H-2,3,5,6-tetraazabenzo[cd]azulen-7-one], in that order: no more than 10 °C, less than 5.00 and less than 6.00.
Regarding `CNc1ncnc2c1ccn2[C@@H]1C[C@H](/C=C/CCNCCc2ccccc2)[C@@H](O)[C@H]1O` [422 (293), (1R,2S,3R,5R)-3-(4-(methylamino)-7H-pyrrolo[2,3-d]pyrimidin-7-yl)-5-((E)-4-(phenethylamino)but-1-en-1-yl) cyclopentane-1,2-diol], the ΔTm at 500 µM at KMT9 [1] is no more than 10 °C. Also, at KMT9 [2], the pIC50 is less than 5.00. Moreover, the pKd at KMT9 [3] was less than 6.00.
In the case of `CCc1cn([C@@H]2C[C@H](CNCCCNCCc3ccccc3)[C@@H](O)[C@H]2O)c2ncnc(N)c12` [465 (339), (1R,2S,3R,5R)-3-{4-amino-5-ethylpyrrolo[2,3-d]pyrimidin-7-yl}-5-[{{3-[(2-phenylethyl)amino]propyl}amino)methyl]cyclopentane-1,2-diol], the ΔTm at 500 µM on KMT9 [1] lay within 10 to 15 °C. Moreover, the pIC50 on KMT9 [2] was 5.00 to 6.00. Also, on KMT9 [3], the pKd is 6.00 to 7.00.
Turning to `CNc1ncnc2c1ccn2[C@@H]1C[C@H](CN2CCC23CCCNC3)[C@@H](O)[C@H]1O` (stereo partly drawn) [447 (319), (1S,2R,3R,5R)-3-{1,6-Diazaspiro[3.5]nonan-1-ylmethyl}-5-[4-(methylamino)pyrrolo[2,3-d]pyrimidin-7-yl]cyclopentane-1,2-diol], the ΔTm at 500 µM on KMT9 [1] was no more than 10 °C. For the same compound, the pIC50 against KMT9 [2] is less than 5.00. In addition, the pKd at KMT9 [3] is less than 6.00.
For `CNc1ncnc2c1ccn2[C@@H]1C[C@H](COCC(=O)NCCc2ccccc2)[C@@H](O)[C@H]1O` [689 (298), 2-(((1R,2R,3S,4R)-2,3-Dihydroxy-4-(4-(methylamino)-7H-pyrrolo[2,3-d]pyrimidin-7-yl)cyclopentyl)methoxy)-N-phenethylacetamide] the same measures were no more than 10 °C, less than 5.00 and less than 6.00.
For `CNc1ncnc2c1ccn2[C@@H]1C[C@H](C(=O)NCCNCCc2cccc(Oc3ccccc3)c2)[C@@H](O)[C@H]1O` [356 (260), (1S,2R,3S,4R)-2,3-dihydroxy-4-(4-(methylamino)-7H-pyrrolo[2,3-d]pyrimidin-7-yl)-N-(2-((3-phenoxyphenethyl)amino)ethyl) cyclopentane-1-carboxamide] the same measures were 10 to 15 °C, less than 5.00 and 6.00 to 7.00.
On to `O=S(=O)(c1ccccc1)n1ccc(-c2cn([C@@H]3C[C@H](CNCCCNCCc4ccccc4)[C@@H](O)[C@H]3O)c3ncncc23)n1` [Compound 614, (1S,2R,3R,5R)-3-(((3-(Phenethylamino)propyl)amino)methyl)-5-(5-(1-(phenylsulfonyl)-1H-pyrazol-3-yl)-7H-pyrrolo[2,3-d]pyrimidin-7-yl)cyclopentane-1,2-diol], for which the ΔTm at 500 µM at KMT9 [1] is 10 to 15 °C. Besides, at KMT9 [2], the negative-log IC50 (pIC50) is 5.00 to 6.00. Further, on KMT9 [3], the pKd was 6.00 to 7.00.
For `Nc1ncnc2c1c(-c1nccs1)cn2[C@@H]1C[C@H](CNCCCNCCc2ccccc2)[C@@H](O)[C@H]1O` [474 (348), (1R,2S,3R,5R)-3-(4-Amino-5-(thiazol-2-yl)-7H-pyrrolo[2,3-d]pyrimidin-7-yl)-5-(((3-(phenethylamino)propyl)amino)methyl) cyclopentane-1,2-diol] the same measures were 15 to 20 °C, 5.00 to 6.00 and 7.00 to 8.00.
Turning to `CNc1ncnc2c1ccn2[C@@H]1C[C@H](CN(CCCNCCc2ccccc2)CC(F)(F)F)[C@@H](O)[C@H]1O` [330 (234), (1R,2S,3R,5R)-3-(4-(methylamino)-7H-pyrrolo[2,3-d]pyrimidin-7-yl)-5-(((3-(phenethylamino)propyl)(2,2,2-trifluoroethyl)amino)methyl) cyclopentane-1,2-diol], the ΔTm at 500 µM at KMT9 [1] is no more than 10 °C. On KMT9 [2], this compound gave a pIC50 of less than 5.00. Further, on KMT9 [3], the pKd was 6.00 to 7.00.
For `CNc1ncnc2c1ccn2[C@@H]1C[C@H](CN(CCCNCCc2ccccc2)c2cn[nH]c2)[C@@H](O)[C@H]1O` [442 (314), (1R,2S,3R,5R)-3-(4-(Methylamino)-7H-pyrrolo[2,3-d]pyrimidin-7-yl)-5-(((3-(phenethylamino)propyl)(1H-pyrazol-4-yl)amino)methyl) cyclopentane-1,2-diol], in that order: 10 to 15 °C, 5.00 to 6.00 and 6.00 to 7.00.
`O[C@@H]1[C@@H](CNCCCNCCc2ccccc2)C[C@@H](n2cc(-c3[nH]ncc3Cl)c3cncnc32)[C@@H]1O` [Compound 633, (1R,2S,3R,5R)-3-(5-(4-Chloro-1H-pyrazol-5-yl)-7H-pyrrolo[2,3-d]pyrimidin-7-yl)-5-(((3-(phenethylamino)propyl)amino)methyl)cyclopentane-1,2-diol]: at KMT9 [1], the ΔTm at 500 µM is no more than 10 °C. This compound showed a pIC50 at KMT9 [2] of 5.00 to 6.00. The pKd on KMT9 [3] is less than 6.00.
`Cn1ccc(-c2cn([C@@H]3C[C@H](CNCCCNCCc4ccccc4)[C@@H](O)[C@H]3O)c3ncnc(N)c23)n1` [476 (350), (1R,2S,3R,5R)-3-(4-Amino-5-(1-methyl-1H-pyrazol-3-yl)-7H-pyrrolo[2,3-d]pyrimidin-7-yl)-5-(((3-(phenethylamino)propyl)amino)methyl) cyclopentane-1,2-diol]: the ΔTm at 500 µM at KMT9 [1] lay in the range of 15 to 20 °C. In addition, the pIC50 at KMT9 [2] is 6.00 to 7.00. In addition, the pKd at KMT9 [3] is 6.00 to 7.00.
